Experimental data reported in patent US9670217B2, “Process for preparing chlorins and their pharmaceutical uses” (UNIVERSIDADE DE COIMBRA, priority 2008, dated 2017).
Like-named read-outs stand apart in the source and are kept apart here.

Key:
[1] = cited from earlier work
[2] = Absorption spectra (λmax, molar absorption coefficient); type: physicochemical; settings: ethanol solutions
Protocol: (§1) Absorption spectra were recorded on a Shimadzu UV-2100 spectrophotometer or with a Carry 50 Biospectrophotometer (Varian, Mulgrave, USA). Fluorescence spectra were measured with a Spex Fluorolog 3 spectrophotometer, with correction for the wavelength dependence system (RCA C31034 photomultiplier), or with a PerkinElmer LS 50 spectrofluorimeter. Transient absorption spectra were measured with an Applied Photophysics LKS 60 nanosecond laser flash photolysis kinetic spectrometer, using the third harmonic of a Spectra-Physics Quanta Ray GCR 130-01 Nd/YAG laser for excitation, a Hamamatsu 1P28 photomultiplier and a Hewlett-Packard Infinium oscilloscope (1 GS/s). Flash photolysis measurements were made in the presence of air and in argon saturated solutions. Photoacoustic calorimetry employed the same Nd/YAG laser, a home-made front-face photoacoustic cell with a 2.25 MHz Panametrics transducer (model 5676) and a Tektronix DSA 601 transient recorder. Room-temperature singlet-oxygen phosphorescence was measured at 1270 nm with a Hamamatsu R5509-42 photomultiplier, cooled to 193 K in a liquid nitrogen chamber (Products for Research model PC176TSCE005), following laser excitation of aerated solutions at 355 nm, using an adapted Applied Photophysics spectrometer. Singlet oxygen emission at 1270 nm was also monitored with a liquid nitrogen-cooled germanium detector (North Coast) coupled to a Tectronix Digitizing scope (TDS 520B), following sample excitation with 5 ns laser pulses of the third harmonic (355 nm) generated by a Q-switched Nd:YAG laser (Continuum Surelite II).
(§2) This is indicative of little aggregation between the molecules, which exist mostly as monomers at these concentrations in the solvents studied. Table 1 presents typical red and infrared molar absorption coefficients (εmax) and wavelength maxima. The same table also presents representative fluorescence quantum yields (ΦF) of Luzitins. The fluorescence quantum yields decrease of these molecules decrease in the presence of chlorine substituents, a fingerprint of the heavy atom effect expected for such molecules.

[3] = Fluorescence quantum yield; type: physicochemical; settings: ethanol
Protocol: The absorptions of both reference and sample solutions were matched at ca 0.2 at the excitation wavelength of 515.5 nm, and the solutions were diluted by a factor 10 before collecting the fluorescence. The fluorescence quantum yield was obtained from the ratio of the fluorescence bands of the sample vs the reference, multiplied by the fluorescence quantum yield of the reference, 0.012 according to [12], after correction for the difference of refractive indexes of ethanol and toluene.
as §2

[4] = Photobleaching under 748 nm diode laser irradiation; type: physicochemical; settings: 100 mW laser irradiation at 748 nm
From the text: The irradiation of bacteriochlorins in the photobleaching experiments employed the 748 nm Lynx diode laser. For animal studies we employed a costumer-made Hamamatsu diode laser, type LA0873. S/N M070301, which delivered 140 mW at 748 nm. This diode laser was controlled by a ThorLabs 500 mA ACC/APC Laser Diode Controller and in-house electronics. The laser energies of this and the other higher-energy lasers employed in this work were regularly checked with an Ophir model AN/2E laser power meter.
Photobleaching experiments were conducted in PBS. PBS:methanol (50:50) and methanol solutions. The solutions were irradiated in a cuvette with an optical path of 1 cm and the Lynx diode laser. The initial absorption of the solutions was ca. 0.8. The mechanism of photobleaching was assessed with the irradiation of the sensitizer using the Hamamatsu diode laser at 80 mW. The sensitizer was irradiated in PBS and in the presence of ascorbic acid or azide.
The chemical stability of the compounds was studied exposing them to light, air, and pH changes. The most significant degradation occurs for aerated solutions irradiated by light of the appropriate wavelength. In such circumstances the photobleaching of the compounds follows a first-order rate and is proportional to the energy of the incident laser light. In general, it was also observed that the photobleaching rate increases with the amount of water present in the solution. Bennett reported the photoconversion of Foscan® (m-THPC) and of the analogous bacteriochlorin (m-THPB) in PBS:methanol (50:50). Scherz reported the photoconversion of Tookad® in acetone and Triton-X:PBS [3]. For the purpose of comparing the photostability of Luzitins with that of Foscan® and Tookad®, we present in Table 2 the half-lives (t1/2) of representative drugs described herein, together with those of Foscan and Tookad® normalized for a laser power of 100 mW.
Luzitin-FMet was dissolved in PBS:methanol (2:3), transferred to a 1 cm quartz cell and its absorption spectrum was registered, FIG. 6. The quartz cell was then placed in the beam of the 748 nm Lynx diode laser, previously unfocused to have a beam diameter coincident with the window of the quartz cell. The laser power measured under these conditions was 28.8 mW. Every 5 minutes the irradiation was interrupted and a new absorption spectrum was registered. This procedure was followed for 65 minutes. The photobleaching follows the kinetics of a first-order reaction in the time window of the experiment. […] Whereas the bacteriochlorin peak at 743 nm is reduced from an absorbance of 1.128 to 0.337, the absorption of the chlorin only increases from 0.114 to 0.151. Taking into consideration the molar absorption coefficients of the compounds at these wavelengths, it is clear that whereas 70% of the bacteriochlorin is destroyed during the irradiation, only a few percent of chlorin are formed.
The half-lives of other bacteriochlorins normalized 100 mW laser irradiation at 748 nm are presented in […], together with the literature data for the photodegradation of Foscan® and Tookad® normalized for the same light intensity. It was also observed that the half-live to Luzitin-Cl is increased by a factor of 30 when the PBS solution of the photosensitizer is saturated with Argon, which reduces the oxygen concentration in the solution.

[5] = n-octanol:water partition coefficient (shake-flask); type: physicochemical
Protocol: The n-octanol:water partition coefficients (CP) were measured using a minor modification of the shake-flask method described by some of us in the literature. The modification concerned the excitation of the absorption band ca 500 nm and the collection of the fluorescence in the red/IR region.

[6] = tested on: human adenocarcinoma (HT29) cell line; settings: HT29, irradiation of 25 J/cm^2 (US2003/6,569,846); read-out: dose causing 50% death rate; cited from earlier work
[7] = Triplet lifetime by laser flash photolysis; type: physicochemical; settings: air-saturated ethanol
Protocol: as §1
The triplet-triplet absorption spectra and the triplet lifetimes of the photosensitisers (τT) were measured with the transient absorption spectra equipment described above, with excitation at 355 nm, where the solutions had absorbances between 0.25 and 0.30.
The triplet-triplet absorption spectra of the Luzitins measured in this work were in good agreement with that in the literature data for chlorins and bacteriochlorins. All triplet decays were clearly mono-exponential. […] Such values are consistent with diffusion limited energy transfer from the triplet state of the sensitizer to molecular oxygen through a charge-transfer interaction.

[8] = Singlet oxygen quantum yield and lifetime (1270 nm phosphorescence); type: physicochemical; settings: air-saturated ethanol
Protocol: as §1
Singlet oxygen quantum yields in ethanol were obtained using a procedure described by some of us, using phenalenone as reference. The literature value for the singlet oxygen quantum yield obtained with phenalenone in ethanol is ΦΔ=0.95 [38].
All the singlet oxygen emissions measured in aerated ethanol solutions are very well described by mono-exponential decays, with typical singlet oxygen lifetimes (τΔ). The ΦΔ values of Table 1 were obtained by the procedures described above and are representative of these photosensitisers.
An air-saturated solution of Luzitin-Cl2Hep in ethanol with an absorbance ca. 0.2 at 355 nm was excited in a 1 cm quartz cuvette by a pulsed Nd:YAG laser, and the singlet oxygen emission was followed at 1270 nm, using the equipment and methods previously described. The intensity of the singlet oxygen phosphorescence was studied as a function of the laser intensity. A similar study was made with phenalenone in ethanol, at a concentration matching the absorbance of Luzitin-Cl2Hep at 355 nm. […] Various laser energies were employed and from the slopes of the energy dependence of singlet oxygen emission and the value of ΦΔ=0.95 for phenalenone in this ethanol, we obtained ΦΔ=0.78 for Luzitin-Cl2Hep.

[9] = in toluene [12]; cited from earlier work
[10] = reference, in ethanol [38]; cited from earlier work

Oc1cccc(-c2c3nc(c(-c4cccc(O)c4)c4ccc([nH]4)c(-c4cccc(O)c4)c4nc(c(-c5cccc(O)c5)c5ccc2[nH]5)CC4)C=C3)c1 [Foscan®, 5,10,15,20-tetrakis(3-hydroxyphenyl)chlorin]
t1/2 (half-life) ([1]; PBS:methanol, literature [46] normalized for a laser power of 100 mW): 8,582 sec

CN(C)S(=O)(=O)c1ccc(F)c(-c2c3nc(c(-c4cc(S(=O)(=O)N(C)C)ccc4F)c4ccc([nH]4)c(-c4cc(S(=O)(=O)N(C)C)ccc4F)c4nc(c(-c5cc(S(=O)(=O)N(C)C)ccc5F)c5ccc2[nH]5)CC4)CC3)c1 [Luzitin-FMet2, 5,10,15,20-tetrakis(2-fluoro-5-N,N-dimethysulfamoylphenyl)bacteriochlorin]
λmax [2]: 742.5 nm | εmax ([2]; corrected for the chlorin content): 78,000^d) M^−1 cm^−1 | ΦF (fluorescence quantum yield) [3]: 0.0585 | t1/2 (photobleaching half-life) ([4]; methanol): 4,352 sec | log KOW (n-octanol:water partition coefficient) [5]: >4

CC[C@H]1c2cc3[n-]c4c(c3C)C(=O)[C@H](C(=O)OC)c4c3nc(cc4[n-]c(cc(n2)[C@@H]1C)c(C(C)=O)c4C)[C@@H](C)[C@@H]3CCC(=O)O.[Pd+2] [Tookad®]
IC50 [6]: 48 µM | t1/2 (half-life) ([1]; buffer): 1.56 s

CCCCCCCNS(=O)(=O)c1ccc(Cl)c(-c2c3nc(c(-c4c(Cl)ccc(S(=O)(=O)NCCCCCCC)c4Cl)c4ccc([nH]4)c(-c4c(Cl)ccc(S(=O)(=O)NCCCCCCC)c4Cl)c4nc(c(-c5c(Cl)ccc(S(=O)(=O)NCCCCCCC)c5Cl)c5ccc2[nH]5)CC4)CC3)c1Cl [Luzitin-Cl2Hep, 5,10,15,20-tetrakis(2,6-dichloro-3-N-heptylsulfamoylphenyl)bacteriochlorin]
εmax [2]: 75,000 M^−1 cm^−1 | λmax [2]: 746 nm | ΦF (fluorescence quantum yield) [3]: 0.0082 | τT (air) triplet lifetime [7]: 295 nsec | τΔ (singlet oxygen lifetime) [8]: 14.3 μsec | ΦΔ (singlet oxygen quantum yield) ([8]; phenalenone as reference): 0.63 | t1/2 (photobleaching half-life) ([4]; methanol): 164,105 sec | log KOW (n-octanol:water partition coefficient) [5]: >4

Clc1cccc(Cl)c1-c1c2nc(c(-c3c(Cl)cccc3Cl)c3ccc([nH]3)c(-c3c(Cl)cccc3Cl)c3nc(c(-c4c(Cl)cccc4Cl)c4ccc1[nH]4)CC3)CC2 [Cl2PhB, 5,10,15,20-tetrakis(2,6-dichlorophenyl)bacteriochlorin]
fluorescence quantum yield of the reference [9]: 0.012

O=C1C=Cc2cccc3cccc1c23 [phenalenone]
ΦΔ (singlet oxygen quantum yield) [10]: 0.95

O=S(=O)(O)c1ccc(F)c(-c2c3nc(c(-c4cc(S(=O)(=O)O)ccc4F)c4ccc([nH]4)c(-c4cc(S(=O)(=O)O)ccc4F)c4nc(c(-c5cc(S(=O)(=O)O)ccc5F)c5ccc2[nH]5)CC4)CC3)c1 [Luzitin-F, 5,10,15,20-tetrakis(2-fluoro-5-sulfonylphenyl)bacteriochlorin]
t1/2 (photobleaching half-life) ([4]; PBS): 58 s
